Data set [1] is described as follows: Size exclusion chromatography, oligomerization state (coiled coil peptides). Conditions: pH 7.0, 0° C. Type of data set: physicochemical. (In general: SEC sorts molecules by how far they enter the pores of the column.)
Experimental: Size exclusion chromatography: Size exclusion chromatography was performed with a Synchropak GPC 100 column (25 cm by 4.6 mm) at pH 7.0 in 50 mM phosphate and 150 mM NaCl at 0° C. […] 10 μl injections of 1 mM peptide solution were chromatographed at 0.20 ml/min and monitored at 275 nm. Peptide concentrations were approximately 60 μM as estimated from peak heights. Samples were run in triplicate.
Size exclusion chromatography was performed with a PolyLC hydroxyethyl A column (20 cm×9 mm) at pH 7.0 in 50 mM phosphate and 150 mM NaCl at 0° C. […] 5 μl injections of ˜1 mM peptide solution were chromatographed at 0.50 ml/min and monitored at 214 nm. Samples were run in triplicate.
Data set [2] is described as follows: Thermal melts monitored by circular dichroism at 222 nm (coiled coil peptides). It counts as physicochemical. The note with it: surface designs on GCN4-p1, pH 7.0, 40 μM. For orientation: Circular dichroism is widely used to follow secondary structure.
Experimental: A 1 mm pathlength cell was used and the temperature was controlled by a thermoelectric unit. Thermal melts were performed in the same buffer using two degree temperature increments with an averaging time of 10 s and an equilibration time of 90 s. […] Peptide concentrations were determined from the tyrosine absorbance at 275 nm (Huyghues-Despointes, et al., supra).
Data set [3] can be described thus: Circular dichroism spectra, ellipticity at 222 nm and helical content (coiled coil peptides). Type of data set: physicochemical. Conditions: 1° C., 40 μM.
Experimental: Circular dichroism CD spectra were measured on an Aviv 62DS spectrometer at pH 7.0 in 50 mM phosphate, 150 mM NaCl and 40 μM peptide. A 1 mm pathlength cell was used and the temperature was controlled by a thermoelectric unit.
Circular dichroism spectroscopy (CD) was used to assay the secondary structure and thermal stability of the designed peptides.
The secondary structures and thermal stabilities of the peptides were assessed by circular dichroism (CD) spectroscopy.
Data set [4] is classed as physicochemical. Conditions: pH 5.5.

No end group written: not given here.

Take “Ac-RMRELEEKVRRLLRKNEDLEREVKRLKELVGER-NH2 [6D]”: the “N (oligomerization state)” value in data set [1] is 2. In addition, the Tm in data set [2] was 71 °C. The corresponding values for “Ac-RMEKLEDKVRELLRKNRRLEEEVRRLKELVGER-NH2 [6A]” are 2 and 71 °C. With “Ac-RMEKLEQKVKELLRKNERLEEEVERLKQLVGER-NH2 [6B]”, the “N (oligomerization state)” value in data set [1] was 2. In addition, the Tm in data set [2] came out at 72 °C.

With “Ac-RMARLEAKVAALLAKNRRLEREVARLKALVGER-NH2 [6C]”, the “N (oligomerization state)” value in data set [1] amounted to 2. The Tm in data set [2] came out at 69 °C. On to “Ac-RMNTLERKVAKLLSKNANLEHEVNTLKQLVGER-NH2 [6E]”, for which the “N (oligomerization state)” value in data set [1] is reported as 2. Further, the Tm in data set [2] came to 15 °C. Also, the “[θ]222” value in data set [3] is given as −12000 deg cm^2/dmol.

In data set [4], “MTWKYIINGKTLKGETTTEIVDAATFEKVWKQYLNDNGIDGEFTYDDATKTLTITE [α70]” came in with a limited solubility of 100 µM. As for “Ac-RMAALEAKVAALLAKNAALEAEVAALKALVGER-NH2 [6F]”, in data set [2], the Tm amounted to 73 °C.

These data come from patent publication US6950754B2, “Apparatus and method for automated protein design” (The California Institute of Technology, priority 1997, dated 2005).
